Each structure is given as a SMILES string. Like-named read-outs stand apart in the source and are kept apart here.

The target of one data set is T1, P-glycoprotein (Homo sapiens, UniProt P08183).
T1 construct: A P-glycoprotein overexpressing cell line derived from the human uterine sarcoma cell line MES-SA; host or cells: MES-SA/DX5 (human uterine sarcoma, doxorubicin-selected)
The data set is described as follows: Determination of P-glycoprotein inhibitory activity (MTT cell growth, MES-SA/DX5 cells with docetaxel or paclitaxel). Format: cell-based. The note with it: compound + 100 nM docetaxel or 200 nM paclitaxel, 3 days. The protocol: A P-glycoprotein overexpressing cell line derived from the human uterine sarcoma cell line MES-SA (i.e., MES-SA/DX5 cells (ATCC)) was seeded by stepwise exposures to increasing concentrations of doxorubicin, in a 96-well plate at 6,500 cells/100 μL media (McCoy's 5A+10% FBS) in each well. The cells were incubated overnight at 37° C., 5% CO2. […] DMSO was used as a negative control and known P-glycoprotein inhibitor, encequidar methane sulfonic acid monohydrate (HM30181A), was used as a positive control. […] Treated cells were incubated for 3 days at 37° C., 5% CO2.
To value (reflecting the starting number of cells upon Compound treatment) of 3 wells of cells was determined by performing the following steps 1-4 as described below.
1. 10 μL MTT (5 mg/mL in PBS) was added to each well and incubated for 1.5 hours at 37° C., 5% CO2.
2. Culture media was removed and 100 μL of DMSO was added to each well.
3. The plate was gently shook until all purple MTT formazan crystals were dissolved. OD540 was then measured using microplate reader.
4. Cell growth percentage was calculated with the following equation:
Cell growth percentage=(T−T0)/(C−T0)×100%,

Another data set has as its target CYP3A4 (Homo sapiens, UniProt P08684). The data set is described as follows: Determination of CYP3A4 inhibitory activity (human liver microsome, Luciferin-IPA). An outline of the steps: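 Final compound concentrations 37, 111, 333, 1000 and 3000 nM; reaction at 37° C for 11 min, then luciferin detection reagent 5 min at room temperature with luminescence read-out. IC50 from nonlinear regression of dose-response.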
On the technique in general: Liver microsomes are vesicles of endoplasmic reticulum, rich in cytochrome P450 enzymes.

The nature of data set [1]: Oral absorption of docetaxel in mice (plasma pharmacokinetics of oral docetaxel co-dosed with compound). Format: in vivo. To be noted: CD-1 mice. As to the method: In vivo activity of the compounds of the present disclosure was performed as follows: Eighteen 7- to 9-week-old CD-1 mice were fasted overnight prior to drug administration while they were allowed free access to water and were fed 4 hours post dosing. Mice were divided into four groups of three to five […] each.
Blood samples (approx. 30-50 μL) were obtained via peripheral veins of each mouse before (0) and 0.25, 0.5, 1, 2, 4, and 8 hours after docetaxel administration for control group (entry 1, Table C) and at 0.25, 0.5, 1, 2, 4, and 8 hours after docetaxel administration for rest of the groups (entries 2-4, Table C). Blood samples were treated with EDTA-K2 as anti-coagulant and placed on ice until centrifugation. Each blood sample was centrifuged at 4° C., 3000 g for 15 min within 0.5 hour from plasma collection. An aliquot of 20 μL plasma sample was protein precipitated with 100 μL IS (Internal Standard) solution (100 ng/mL labetalol+100 ng/mL tolbutamide in acetonitrile, 1:1), the mixture was vortex-mixed and centrifuged at 4000 rpm for 15 min at 4° C. An aliquot of 80 μL sample was transferred to a sample plate and mixed with 80 μL water, then the plate was shook at 800 rpm for 10 min. 1-10 μL of the supernatant was then injected for LC-MS/MS analysis under the following conditions:
MS conditions: ESI, positive;
Column: Waters ACQUITY UPLC BEH C18 2.1×50 mm, 1.7 μm;
Mobile phase A: 0.1% formic acid in water; and
Mobile phase B: 0.1% formic acid in acetonitrile.

Setting [2] is: oral docetaxel 10 mg/kg with oral compound (Compound 16 80 mg/kg, Compound 48 20 mg/kg, encequidar 10 mg/kg), plasma.
The mark [3] stands for this setting: CYP3A4 IC50 (nM), 37° C. 11 minutes.

CYP3A4, sequence (P08684 whole entry): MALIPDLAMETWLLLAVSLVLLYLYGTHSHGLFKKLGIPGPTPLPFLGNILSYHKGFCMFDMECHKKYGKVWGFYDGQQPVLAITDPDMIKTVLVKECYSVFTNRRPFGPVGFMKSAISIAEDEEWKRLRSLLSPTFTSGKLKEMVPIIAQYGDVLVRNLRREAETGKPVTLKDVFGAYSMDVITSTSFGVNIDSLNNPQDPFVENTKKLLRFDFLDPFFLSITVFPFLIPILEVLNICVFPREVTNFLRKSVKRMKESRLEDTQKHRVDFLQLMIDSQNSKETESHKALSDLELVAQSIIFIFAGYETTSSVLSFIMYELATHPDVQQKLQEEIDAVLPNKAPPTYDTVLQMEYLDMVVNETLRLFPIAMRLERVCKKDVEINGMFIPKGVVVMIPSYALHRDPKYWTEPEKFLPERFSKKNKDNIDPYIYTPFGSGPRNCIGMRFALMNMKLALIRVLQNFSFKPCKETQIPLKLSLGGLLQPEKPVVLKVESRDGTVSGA
T1 sequence (P08183 whole entry): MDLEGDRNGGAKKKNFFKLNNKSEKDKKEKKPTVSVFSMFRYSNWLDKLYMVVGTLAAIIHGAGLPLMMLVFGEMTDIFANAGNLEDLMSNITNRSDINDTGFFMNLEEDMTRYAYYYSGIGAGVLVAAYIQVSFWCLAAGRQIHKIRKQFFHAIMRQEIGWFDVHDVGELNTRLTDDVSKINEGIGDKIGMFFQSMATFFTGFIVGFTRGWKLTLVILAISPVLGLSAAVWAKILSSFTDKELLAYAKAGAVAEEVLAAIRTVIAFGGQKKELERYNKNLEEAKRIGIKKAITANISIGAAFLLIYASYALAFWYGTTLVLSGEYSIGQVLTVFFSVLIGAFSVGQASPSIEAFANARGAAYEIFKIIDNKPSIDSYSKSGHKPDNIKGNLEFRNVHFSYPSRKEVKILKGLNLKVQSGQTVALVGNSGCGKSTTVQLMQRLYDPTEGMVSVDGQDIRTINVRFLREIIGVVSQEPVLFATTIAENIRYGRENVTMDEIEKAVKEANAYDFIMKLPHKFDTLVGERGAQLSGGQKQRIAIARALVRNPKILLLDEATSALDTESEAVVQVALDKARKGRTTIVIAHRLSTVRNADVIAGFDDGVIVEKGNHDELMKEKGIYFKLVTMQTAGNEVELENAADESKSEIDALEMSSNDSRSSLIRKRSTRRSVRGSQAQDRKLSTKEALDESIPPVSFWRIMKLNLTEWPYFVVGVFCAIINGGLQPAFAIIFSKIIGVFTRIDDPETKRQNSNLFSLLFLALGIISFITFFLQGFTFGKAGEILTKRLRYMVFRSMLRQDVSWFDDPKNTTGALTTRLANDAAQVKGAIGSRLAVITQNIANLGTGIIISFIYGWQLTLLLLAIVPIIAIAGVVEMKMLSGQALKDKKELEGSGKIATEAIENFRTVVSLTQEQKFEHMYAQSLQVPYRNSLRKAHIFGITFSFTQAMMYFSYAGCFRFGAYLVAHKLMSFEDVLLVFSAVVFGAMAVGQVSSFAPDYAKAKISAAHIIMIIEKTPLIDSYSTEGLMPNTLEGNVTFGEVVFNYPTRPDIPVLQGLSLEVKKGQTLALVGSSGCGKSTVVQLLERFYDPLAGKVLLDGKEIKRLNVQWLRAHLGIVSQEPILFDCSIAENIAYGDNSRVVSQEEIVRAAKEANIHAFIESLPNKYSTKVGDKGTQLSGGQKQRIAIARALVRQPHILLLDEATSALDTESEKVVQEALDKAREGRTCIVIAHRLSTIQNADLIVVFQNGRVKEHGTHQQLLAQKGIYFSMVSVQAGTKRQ

What is called EC50 is the concentration at which the effect is half-maximal. What is called IC50 is the midpoint of a concentration-inhibition curve. Regarding `COc1cc2c(cc1OC)CN(CCc1ccc(-n3nnc(-c4cc(OC)c(OC)cc4NC(=O)c4cc(=O)c5ccccc5o4)n3)cc1)CC2.CS(=O)(=O)O.O` [encequidar methane sulfonic acid monohydrate], the EC50 at P-glycoprotein is < 100 nM. Further, the IC50 at CYP3A4 (read-out: CYP3A4 IC50, 37° C. 11 minutes) was > 1000 nM. In data set [1] (setting [2]), the “AUC0-inf of oral docetaxel (area under the curve of plasma concentration)” value was determined as 698 ± 238 ng·h/mL, the “Cmax of oral docetaxel (maximum plasma concentration)” value turned out to be 316 ± 98.1 ng/mL and the “Tmax of oral docetaxel (time at the maximum plasma concentration)” value worked out at 42 ± 16.4 min. For the same molecule, the “increase in the systemic bioavailability of orally dosed docetaxel” value in data set [1] (as compared to when there was no inhibitor) worked out at 3.4 fold.
As for `CCN(CCc1ccc(NC(=O)c2cc(OC)c(OC)cc2NC(=O)c2cc(=O)c3ccccc3o2)cc1)Cc1ccc(-c2ccco2)cc1` [Compound 143], the IC50 at CYP3A4 (setting [3]) was > 1000 nM.
Same read-out and setting: the result for `COc1cc(NC(=O)c2cc(=O)c3ccccc3o2)c(C(=O)Nc2ccc(CCN(Cc3cccnc3)Cc3cccc(-c4nc(C)no4)c3)cc2)cc1OC` [Compound 203] reads 250 to 500 nM; that for `COc1cc(NC(=O)c2cc(=O)c3ccccc3o2)c(C(=O)Nc2ccc(CCN(Cc3cncc(O)c3)Cc3ccc4c(cnn4C)c3)cc2)cc1OC` [Compound 223], 100 to 250 nM; that for `COc1cc(NC(=O)c2cc(=O)c3ccccc3o2)c(C(=O)Nc2ccc(CCN(C)Cc3ccc(-c4nn[nH]n4)cc3)cc2)cc1OC` [Compound 148], > 1000 nM.
Still for that read-out and setting: next, `COc1cc(NC(=O)c2cc(=O)c3ccccc3o2)c(C(=O)Nc2ccc(CCN(Cc3ccc(-n4ccnc4)cc3)Cc3ccc4cnn(C)c4c3)cc2)cc1OC` [Compound 186]: 100 to 250 nM; `COc1cc(NC(=O)c2cc(=O)c3ccccc3o2)c(C(=O)Nc2ccc(CCN(CC3=CNCN3C)Cc3ccc4cnn(C)c4c3)cc2)cc1OC` [Compound 35]: > 1000 nM; `COc1cc(NC(=O)c2cc(=O)c3ccccc3o2)c(C(=O)Nc2ccc(CCN(Cc3ccc4c(c3)CCO4)Cc3ccc4c(cnn4C)c3)cc2)cc1OC` [Compound 163]: > 1000 nM.
The same measure, in the same setting: the result for `COc1cc(NC(=O)c2cc(=O)c3ccccc3o2)c(C(=O)Nc2ccc(CCN(C)C(=O)CCc3cccnc3)cc2)cc1OC` [Compound 119] reads 100 to 250 nM.
For the molecule `C#Cc1ccc(CN(C)CCc2ccc(NC(=O)c3cc(OC)c(OC)cc3NC(=O)c3cc(=O)c4ccccc4o3)cc2)cc1` [Compound 115], the IC50 on CYP3A4 (setting [3]) is > 1000 nM.
The molecule `CCN(CCc1ccc(NC(=O)c2cc(OC)c(OC)cc2NC(=O)c2cc(=O)c3ccccc3o2)cc1)Cc1cccn1Cc1cccnc1` [Compound 25] displayed a 50% inhibitory concentration (IC50) at CYP3A4 (setting [3]) of 250 to 500 nM.
Same read-out and setting: the result for `COc1cc(NC(=O)c2cc(=O)c3ccccc3o2)c(C(=O)Nc2ccc(CCN(C)Cc3ccc4c(c3)ncn4C)cc2)cc1OC` [Compound 98] reads > 1000 nM; that for `COc1cc(NC(=O)c2cc(=O)c3ccccc3o2)c(C(=O)Nc2ccc(CCN(C)Cc3cccc(OC[C@@H]4CO[C@@](Cn5ccnc5)(c5ccc(Cl)cc5Cl)O4)c3)cc2)cc1OC` [Compound 17], < 100 nM.
On the same count and under the same terms, next, `COc1cncc(CN(CCc2ccc(NC(=O)c3cc(OC)c(OC)cc3NC(=O)c3cc(=O)c4ccccc4o3)cc2)Cc2ccc3c(c2)nnn3C)c1` [Compound 220]: 100 to 250 nM; `COc1cc(NC(=O)c2cc(=O)c3ccccc3o2)c(C(=O)Nc2ccc(CCN(C)Cc3ccc(-c4cncs4)cc3)cc2)cc1OC` [Compound 118]: 250 to 500 nM.
The same measure, in the same setting: the result for `Cn1ncc2cc(CN(CCc3ccc(NC(=O)c4ccc(C(=O)OCc5cccnc5)cc4NC(=O)c4cc(=O)c5ccccc5o4)cc3)Cc3ccc4c(cnn4C)c3)ccc21` [Compound 268] reads > 1000 nM.
Take `CCN(CCc1ccc(NC(=O)c2cc(OC)c(OC)cc2NC(=O)c2cc(=O)c3ccccc3o2)cc1)Cc1ccc2c(c1)n(C)c(=O)n2C` [Compound 161]: the IC50 against CYP3A4 (setting [3]) was > 1000 nM.
The same measure, in the same setting: the result for `COCCOc1cncc(CN(CCc2ccc(NC(=O)c3cc(OC)c(OC)cc3NC(=O)c3cnc4ccccc4n3)cc2)Cc2ccc3c(cnn3C)c2)c1` [Compound 62] reads 500 to 1000 nM.
The same measure, in the same setting: the result for `COc1cc(NC(=O)c2cc(=O)c3ccccc3o2)c(C(=O)Nc2ccc(CCNCc3ccc4c(cnn4C)c3)cc2)cc1OC` [Compound 139] reads > 1000 nM.
Regarding `COc1cc(NC(=O)c2cc(=O)c3ccccc3o2)c(C(=O)Nc2ccc(CCN(Cc3ccc(-n4ccnc4C)cc3)Cc3ccc4c(cnn4C)c3)cc2)cc1OC` [Compound 241], the IC50 against CYP3A4 (setting [3]) was > 1000 nM.
In turn, `COc1cncc(CN(CCc2ccc(NC(=O)c3cc(OC)c(OC)cc3NC(=O)c3cc(=O)c4ccccc4o3)cc2)Cc2ccc3c(c2)n(C)c(=O)n3C)c1` [Compound 69] returned an IC50 at CYP3A4 (setting [3]) of 100 to 250 nM.
The molecule `COc1cc(NC(=O)c2cc(=O)c3ccccc3o2)c(C(=O)Nc2ccc(CCN(Cc3cccnc3)Cc3ccc4cnn(C)c4c3)cc2)cc1OC` [Compound 42] registered an IC50 against CYP3A4 (setting [3]) of 250 to 500 nM.
Still for that read-out and setting: next, `COc1cc(NC(=O)c2cc(=O)c3ccccc3o2)c(C(=O)Nc2ccc(CCN(CCN3CCOCC3)Cc3ccc4c(cnn4C)c3)cc2)cc1OC` [Compound 149]: > 1000 nM; `COc1cc(NC(=O)c2cc(=O)c3ccccc3o2)c(C(=O)Nc2ccc(CCN(Cc3ccc4cnn(C)c4c3)Cc3ncc[nH]3)cc2)cc1OC` [Compound 36]: 100 to 250 nM; `COC(=O)c1ccc(C(=O)Nc2ccc(CCN(Cc3cncc(OC)c3)Cc3cncc(OC)c3)cc2)c(NC(=O)c2cc(=O)c3ccccc3o2)c1` [Compound 258]: < 100 nM.
Still for that read-out and setting: next, `COc1cc(NC(=O)c2cc(=O)c3ccccc3o2)c(C(=O)Nc2ccc(CCN(Cc3cccc(-c4nc(C)no4)c3)Cc3cncs3)cc2)cc1OC` [Compound 202]: 500 to 1000 nM; `COc1cc(NC(=O)c2cc(=O)c3ccccc3o2)c(C(=O)Nc2ccc(CCN(Cc3cccnc3)Cc3ccc4c(c3)nnn4C)cc2)cc1OC` [Compound 221]: 250 to 500 nM.
Turning to `COc1cc(NC(=O)c2cc(=O)c3ccccc3o2)c(C(=O)Nc2ccc(CCN(C)Cc3ccc4c(c3)OCO4)cc2)cc1OC` [Compound 138], the IC50 at CYP3A4 (setting [3]) is > 1000 nM.
On CYP3A4 (setting [3]), `COc1cc(NC(=O)c2cc(=O)c3ccccc3o2)c(C(=O)Nc2ccc(CCN(Cc3cncc(C)c3)Cc3ccc4c(c3)c(C)nn4C)cc2)cc1OC` [Compound 64] showed a concentration for half-maximal inhibition (IC50) of 100 to 250 nM.
For the molecule `CCN(CCc1ccc(NC(=O)c2cc(OC)c(OC)cc2NC(=O)c2cc(=O)c3ccccc3o2)cc1)Cc1cccc(OC[C@@H]2CO[C@@](Cn3ccnc3)(c3ccc(Cl)cc3Cl)O2)c1` [Compound 127], the IC50 against CYP3A4 (setting [3]) was < 100 nM.
Same read-out and setting: the result for `COc1cc(NC(=O)c2cc(=O)c3cc(C)ccc3o2)c(C(=O)Nc2ccc(CCN(Cc3ccc4c(cnn4C)c3)Cc3ccc4c(c3)nnn4C)cc2)cc1OC` [Compound 251] reads > 1000 nM; that for `COC(=O)c1ccc(C(=O)Nc2ccc(CCN(C)Cc3ccc4c(cnn4C)c3)cc2)c(NC(=O)c2cnc3ccccc3c2)c1` [Compound 281], > 1000 nM; that for `COc1ccc(CN(CCc2ccc(NC(=O)c3cc(OC)c(OC)cc3NC(=O)c3cc(=O)c4ccccc4o3)cc2)Cc2cccc(-n3ccnc3)c2)cc1C#N` [Compound 219], 100 to 250 nM.
With `COc1cc(NC(=O)c2cnc3ccccc3c2)c(C(=O)Nc2ccc(CCN(C)Cc3ccc(-n4ccnc4)cc3)cc2)cc1OC` [Compound 2], the 50% inhibitory concentration (IC50) against CYP3A4 (setting [3]) lay within 100 to 250 nM.
For the molecule `CCN(CCc1ccc(NC(=O)c2cc(OC)c(OC)cc2NC(=O)c2cc(=O)c3ccccc3o2)cc1)Cc1ccc2cnn(C)c2c1` [Compound 164], the concentration for half-maximal inhibition (IC50) against CYP3A4 (setting [3]) was > 1000 nM.

For the origin of these results see patent US20220106301A1, “ACETAMIDO-PHENYLBENZAMIDE DERIVATIVES AND METHODS OF USING THE SAME” (Athenex, Inc., priority 2020, published 2022).
